Laboratory results published in patent US20170327598A1, “SINGLE DOMAIN ANTIBODIES DIRECTED AGAINST INTRACELLULAR ANTIGENS” (SINGH MOLECULAR MEDICINE, LLC, priority 2014, published 2017).
“And” between values parts separate entries of the source, which are not always exact repeats. Identical values can stand only once. Like-named read-outs stand apart in the source and are kept apart here.

Tests used:
U87 mg cells = assay: Anti-proliferative effect, U87 mg cells; type: cell-based; conditions: for Absorbance ± S.E. / % Inhibition: 72 hr
[1] = system: translocation of Stat3 to the nucleus; assay: Stat3 immunofluorescence after IL-6 treatment (HEp-2, MDA-MB-231, PANC-1); type: cell-based; conditions: sdAb 1:10 in media overnight, 100 ng/ml IL-6 15 min
Procedure: The cells were grown to confluence on chamber slides. […] As a negative control, no antibody was added to duplicate chambers. The slides were washed, and either serum-free media alone or 100 ng/ml recombinant human IL-6 (Peprotech, Rocky Hill, N.J.) in serum free media was added to the slides for 15 min at 37° C. The media was then removed and the chamber slides were fixed in ice cold 100% methanol for 10 min at −20° C.
Immunofluorescence assays were performed on the fixed slides. First, the slides were blocked with 3% BSA in PBS was done for one hour at room temperature. The primary antibody, Stat3(124H6) mouse monoclonal antibody (Cell Signaling Technology, Danvers, Mass.) was added to the slides at a 1:1000 dilution overnight in dark box at 4° C. The following day, the slides were washed and the secondary Alexa Fluor 488 anti-mouse IgG antibody (Cell Signaling Technology) was added at a 1:500 dilution and incubated for 1 hour at room temperature. The slides were then washed, mounted with mounting media and viewed with a fluorescence microscope.

MDA-MB 231 cells = assay: Internalization of sdAb, anti-His tag staining, MDA-MB 231; type: cell-based; conditions: 18 hours
Procedure: An anti-HIV-1 Reverse Transcriptase (RT) sdAb was used as a negative control.
The slides were incubated for 18 hours after sdAb addition. The chambers were briefly rinsed with media and fixed in ice-cold methanol for 5-10 min. The chambers were then dried and stained with a fluorescent anti-His tag antibody (1:200)(Novus Biologicals, Littleton, Colo.) for 45 min at room temperature. The slides were rinsed in PBS for 5 minutes and mounted.

MDA-MB-468 cells = assay: MTT proliferation assay, MDA-MB-468; type: cell-based, human; conditions: MDA-MB-468, 72 hours
PANC-1 xenograft = assay: PANC-1 xenograft, sdAb alone, Gemcitabine alone or combination, Example 19; conditions: SBT-100 5 mg/kg BID, Gemcitabine 20 mg/kg, or both
[2] = system: rabbit anti-llama biotinylated antibody or his-probe (H-3) biotin labeled antibody; assay: ELISA with sdAbs coated, binding of secondary antibodies (Experiments 2 and 3)
Procedure: Two assays (Experiment 2 and 3) were performed to assess the binding of the secondary antibody to the sdAbs. A similar ELISA method was utilized except the sdAbs were directly coated onto the assay plate at a concentration of 1 μg/mL. Plates were incubated overnight at 2-8° C. After the incubation, plates were washed (3×) and blocked (3% BSA in PBS) for at least one hour at room temperature.
After removal of the blocking buffer and washing (3×), the secondary antibodies, either rabbit anti-llama biotinylated antibody or his-probe (H-3) biotin labeled antibody at was then added at a 1:5,000 dilution to each well and incubated with shaking for at least one hour at room temperature. Only the rabbit anti-llama biotinylated antibody was used in Experiment 2. Both antibodies were run in parallel in Experiment 3.
After the incubation with secondary antibody, the plates were again washed (3×) and HRP at a 1:50,000 dilution was added to each well. Plates were incubated with shaking for at least one hour at room temperature. One last wash (3×) was performed followed by the addition of TMB substrate and plates were incubated at room temperature. For the anti-llama biotinylated antibody stop solution was added to halt the colorimetric reaction at 10 minutes. The his-probe (H-3) biotin labeled antibody was allowed to incubate for 20 minutes prior to stopping. The absorbance at 450 nm was measured as before.

[3] = system: GloResponse SIE-luc2P/HEK 293 cells; assay: BCA protein concentration of reporter cells run in parallel; type: cell-based; conditions: highest concentration
STAT5 = assay: Biacore 3000, sdAb immobilized, STAT5 analyte (Example 23); type: binding
[4] = system: BT474 human breast tumor xenograft; assay: BT474 human breast tumor xenograft in CB.17 SCID mice, Example 13; type: in vivo
BT474 cells = assay: MTT proliferation assay, BT474; type: cell-based, human; conditions: BT474, 72 hours
[5] = system: MDA-MB-231 human breast cancer xenograft; conditions: for Individual Tumor Measurements: listed as anti-STAT3 bacterial VHH13
HT1080 cells = assay: Anti-proliferative effect, HT1080 cells; type: cell-based; conditions: for Absorbance ± S.E.: 72 hr

## Anti-STAT3 VHH13: anti-STAT3 single domain antibody, SEQ ID NO:3; bacterially produced form referred to as SBT-100
U87 mg cells; 25 μg/ml
  Absorbance ± S.E.: 0.687 ± 0.03
U87 mg cells; 50 μg/ml
  % Inhibition: 18%
  Absorbance ± S.E.: 0.456 ± 0.01
U87 mg cells; 100 μg/ml
  % Inhibition: 51%
  Absorbance ± S.E.: 0.271 ± 0.02
U87 mg cells; 200 μg/ml
  % Inhibition: 62%
  Absorbance ± S.E.: 0.211 ± 0.03
U87 mg cells; U87 mg cells
  IC50: 65 µg/mL
U87 mg cells; […]
  Absorbance ± S.E.: 0.702 ± 0.04
[1]
  translocation of Stat3 to the nucleus following IL-6 treatment: blocks the translocation of Stat3 to the nucleus
MDA-MB 231 cells
  internalization, anti-His tag staining: positive cytoplasmic staining
MDA-MB-468 cells; 0.39 μg/ml
  Mean Abs: 0.311
MDA-MB-468 cells; 3.13 μg/ml
  % Inhibition: 11.9%
  Mean Abs: 0.223
MDA-MB-468 cells; 6.25 μg/ml
  % Inhibition: 9.1%
  Mean Abs: 0.230
MDA-MB-468 cells; 25 μg/ml
  % Inhibition: 73.5%
  Mean Abs: 0.067
MDA-MB-468 cells; 50 μg/ml
  % Inhibition: 83.4%
  Mean Abs: 0.042
MDA-MB-468 cells; 100 μg/ml
  % Inhibition: 85.0%
  Mean Abs: 0.038
MDA-MB-468 cells; 200 μg/ml
  % Inhibition: 84.4%
  Mean Abs: 0.040
PANC-1 xenograft; Day 1
  TUMOR VOLUMES (mm^3) Mean: 107.34 mm^3
PANC-1 xenograft; Day 5
  TUMOR VOLUMES (mm^3) Mean: 145.86 mm^3
PANC-1 xenograft; Day 8
  TUMOR VOLUMES (mm^3) Mean: 149.12 mm^3
PANC-1 xenograft; Day 12
  % INHIBITION OF CONTROL (tumor growth): 20.70%
  TUMOR VOLUMES (mm^3) Mean: 188.78 mm^3
PANC-1 xenograft; Day 15
  TUMOR VOLUMES (mm^3) Mean: 233.25 mm^3
PANC-1 xenograft; Day 19
  % INHIBITION OF CONTROL (tumor growth): 18.37%
  TUMOR VOLUMES (mm^3) Mean: 332.68 mm^3
PANC-1 xenograft; Day 22
  % INHIBITION OF CONTROL (tumor growth): 19.17%
  TUMOR VOLUMES (mm^3) Mean: 390.59 mm^3
[2]; His-probe (H-3), Experiment 3, stored 1:100 dilution of sdAb
  OD450 Values: 0.360
[2]; Rabbit anti-Llama Secondary Antibody, Experiment 2, sdAb coated at 1 μg/mL
  OD450 Values: 1.313
[2]; Rabbit anti-Llama Secondary Antibody, Experiment 3, stored 1:100 dilution of sdAb
  OD450 Values: 0.363
[3]
  decrease in protein: approximately 2 fold
STAT5; Biacore, sdAb immobilized
  binding of STAT5: bound
STAT5; sdAb immobilized (STAT5-31 440 RU, anti-KRAS 140 RU, VHH13 1000 RU), STAT5 protein analyte 500 nM
  Result: Binding
[4]; 1 mg/kg ip tid × 14 first day 2 doses
  T-C: 10.8
[4]; 1 mg/kg ip tid×14, compared to the control group
  effect on growth of BT474 tumors in vivo: did not reduce the growth
[4]; Day 60, 1 mg/kg ip tid × 14, n in parentheses
  MTV (n) Day 60: 550 (3)
[4]; day 59 of the study, both groups
  tumor volume: 700 cubic mm^3
BT474 cells; 0.39 μg/ml
  Mean Abs: 0.322
BT474 cells; 3.13 μg/ml
  Mean Abs: 0.446
BT474 cells; 6.25 μg/ml
  Mean Abs: 0.469
BT474 cells; 25 μg/ml
  Mean Abs: 0.256
BT474 cells; 50 μg/ml
  Mean Abs: 0.145
BT474 cells; 100 μg/ml
  Mean Abs: 0.046
BT474 cells; 200 μg/ml
  Mean Abs: 0.040
[5]; 500 μg/kg bw IP QDx14
  % mean tumor growth inhibition: 33.64%
  tumor doubling time: 61.06 days
[5]; 500 μg/kg bw IP QDx14, day 14 of dosing
  mean tumor size (±SE): 118.86±15.94
[5]; Group 2, 500 μg/kg bw IP QDx14, single animals, Day 1
  Individual Tumor Measurements: 123.94 mm^3 and 85.93 mm^3 and 147.34 mm^3 and 115.91 mm^3 and 73.23 mm^3
[5]; Group 2, Day 1
  Tumor Measurements, group Mean: 102.61 mm^3
[5]; Group 2, Day 6
  Tumor Measurements, group Mean: 101.16 mm^3
[5]; Group 2, Day 9
  Tumor Measurements, group Mean: 112.44 mm^3
[5]; Group 2, Day 12
  Tumor Measurements, group Mean: 112.92 mm^3
[5]; Group 2, Day 16
  Tumor Measurements, group Mean: 118.86 mm^3
[5]; Group 2, Day 20
  Tumor Measurements, group Mean: 128.49 mm^3
[5]; Group 2, single animals, Day 6
  Individual Tumor Measurements: 114.91 mm^3 and 101.06 mm^3 and 148.72 mm^3 and 103.64 mm^3 and 82.59 mm^3
[5]; Group 2, single animals, Day 9
  Individual Tumor Measurements: 129.22 mm^3 and 112.60 mm^3 and 169.69 mm^3 and 108.37 mm^3 and 110.13 mm^3
[5]; Group 2, single animals, Day 12
  Individual Tumor Measurements: 176.04 mm^3 and 112.24 mm^3 and 185.08 mm^3 and 141.21 mm^3 and 91.22 mm^3
[5]; Group 2, single animals, Day 16
  Individual Tumor Measurements: 170.09 mm^3 and 139.56 mm^3 and 170.07 mm^3 and 144.51 mm^3
[5]; Group 2, single animals, Day 20
  Individual Tumor Measurements: 162.98 mm^3 and 96.43 mm^3 and 256.71 mm^3 and 119.42 mm^3
HT1080 cells; 25 μg/ml
  Absorbance ± S.E.: 1.09 ± 0.01
HT1080 cells; 50 μg/ml
  Absorbance ± S.E.: 0.42 ± 0.04
HT1080 cells; 100 μg/ml
  Absorbance ± S.E.: 0.27 ± 0.01
HT1080 cells; 200 μg/ml
  Absorbance ± S.E.: 0.22 ± 0.02
HT1080 cells; HT1080 cells
  IC50: 33 µg/mL
